We go through 26 compounds from patent US12459922B2 (Gilead Sciences, Inc., priority 2022, dated 2025).

In this experiment the test system is endogenous cellular STAT1 (phosphorylated at Tyr701) in NCI-H1373 cells. Description: Phospho-STAT1 (Tyr701) LANCE Ultra TR-FRET Detection Assay. In kind it is cell-based. The conditions noted are these: Homo sapiens, NCI-H1373, 48 h, phospho-STAT1 (Tyr701) induction, read-out: NH1373 pSTAT1 EC50.

Take `O=c1[nH]ncc(N[C@H](CCCn2cnc3cc(-c4cnc(C5CC5)cn4)c(F)cc3c2=O)COC(F)F)c1C(F)(F)F` [Example 413, (R)-7-(5-cyclopropylpyrazin-2-yl)-3-(5-(difluoromethoxy)-4-((6-oxo-5-(trifluoromethyl)-1,6-dihydropyridazin-4-yl)amino)pentyl)-6-fluoroquinazolin-4(3H)-one]: the EC50 stood at 4.59 nM.

Take `O=c1[nH]ncc(N[C@H]2CCC[C@@H](Cn3ccc4cc(-c5cnc(C6COC6)cn5)c(F)cc4c3=O)C2)c1C(F)(F)F` [Example 266, 7-fluoro-6-(5-(oxetan-3-yl)pyrazin-2-yl)-2-(((1R,3S)-3-((6-oxo-5-(trifluoromethyl)-1,6-dihydropyridazin-4-yl)amino)cyclohexyl)methyl)isoquinolin-1(2H)-one]: the EC50 is 187 nM.

Regarding `C[C@@H](CCCn1ccc2cc(-c3ncc(Cl)c(N)n3)c(F)cc2c1=O)Nc1cn[nH]c(=O)c1C(F)(F)F` [Example 202, (S)-6-(4-amino-5-chloropyrimidin-2-yl)-7-fluoro-2-(4-((6-oxo-5-(trifluoromethyl)-1,6-dihydropyridazin-4-yl)amino)pentyl)isoquinolin-1(2H)-one], the EC50 is 1.84 nM.

For the compound `Nc1nc(-c2cc3ccn(CCC[C@H](COC(F)F)Nc4cn[nH]c(=O)c4C(F)(F)F)c(=O)c3c(F)c2F)ncc1C(F)F` [Example 387, (R)-6-(4-amino-5-(difluoromethyl)pyrimidin-2-yl)-2-(5-(difluoromethoxy)-4-((6-oxo-5-(trifluoromethyl)-1,6-dihydropyridazin-4-yl)amino)pentyl)-7,8-difluoroisoquinolin-1(2H)-one], the concentration for a half-maximal effect (EC50) turned out to be 10.4 nM.

On to `CC[C@@H](CCCn1cnc2cc(-c3cnc(C(F)(F)F)c(N)n3)c(F)cc2c1=O)Nc1cn[nH]c(=O)c1C(F)(F)F` [Example 347, (S)-7-(6-amino-5-(trifluoromethyl)pyrazin-2-yl)-6-fluoro-3-(4-((6-oxo-5-(trifluoromethyl)-1,6-dihydropyridazin-4-yl)amino)hexyl)quinazolin-4(3H)-one], for which the EC50 was determined as 93.4 nM.

For `C[C@@H](CCCn1ccc2cc(-c3ncc4cc(F)ccc4n3)c(F)cc2c1=O)Nc1cn[nH]c(=O)c1C(F)(F)F` [Example 322, (S)-7-fluoro-6-(6-fluoroquinazolin-2-yl)-2-(4-((6-oxo-5-(trifluoromethyl)-1,6-dihydropyridazin-4-yl)amino)pentyl)isoquinolin-1(2H)-one], the EC50 came to 5.64 nM.

Turning to `C[C@H](Nc1cn[nH]c(=O)c1C(F)(F)F)/C(F)=C/Cn1ccc2cc(-c3ncc(C(F)(F)F)cn3)c(F)c(F)c2c1=O` [Example 132, (S,Z)-7,8-difluoro-2-(3-fluoro-4-((6-oxo-5-(trifluoromethyl)-1,6-dihydropyridazin-4-yl)amino)pent-2-en-1-yl)-6-(5-(trifluoromethyl)pyrimidin-2-yl)isoquinolin-1(2H)-one], the EC50 worked out at 3.47 nM.

In the case of `O=c1[nH]ncc(N[C@H](CCCn2ccc3cc(-c4ccc(C(F)(F)F)cn4)c(F)c(F)c3c2=O)COC(F)F)c1C(F)(F)F` [Example 407, (R)-2-(5-(difluoromethoxy)-4-((6-oxo-5-(trifluoromethyl)-1,6-dihydropyridazin-4-yl)amino)pentyl)-7,8-difluoro-6-(5-(trifluoromethyl)pyridin-2-yl)isoquinolin-1(2H)-one], the EC50 worked out at 1.99 nM.

With `Cc1nc(N)nc(-c2cc3ccn(CCC[C@H](C)Nc4cn[nH]c(=O)c4C(F)(F)F)c(=O)c3cc2F)n1` [Example 366, (S)-6-(4-amino-6-methyl-1,3,5-triazin-2-yl)-7-fluoro-2-(4-((6-oxo-5-(trifluoromethyl)-1,6-dihydropyridazin-4-yl)amino)pentyl)isoquinolin-1(2H)-one], the EC50 turned out to be 92.5 nM.

As for `Nc1nc(-c2cc3ccn(C[C@@H]4CCC[C@H](Nc5cn[nH]c(=O)c5C(F)(F)F)C4)c(=O)c3c(F)c2F)ncc1C(F)(F)F` [Example 234], the EC50 amounted to 1.55 nM.

For the compound `C[C@@H](CCCn1ccc2cc(-c3ncc4c(n3)CCC4)c(F)cc2c1=O)Nc1cn[nH]c(=O)c1C(F)(F)F` [Example 94, (S)-6-(6,7-dihydro-5H-cyclopenta[d]pyrimidin-2-yl)-7-fluoro-2-(4-((6-oxo-5-(trifluoromethyl)-1,6-dihydropyridazin-4-yl)amino)pentyl)isoquinolin-1(2H)-one], the EC50 was 22.8 nM.

With `C[C@@H](Nc1cn[nH]c(=O)c1C(F)(F)F)/C(F)=C/Cn1ccc2cc(-c3ncc(C(F)(F)F)cn3)c(F)c(F)c2c1=O` [Example 131, (R,Z)-7,8-difluoro-2-(3-fluoro-4-((6-oxo-5-(trifluoromethyl)-1,6-dihydropyridazin-4-yl)amino)pent-2-en-1-yl)-6-(5-(trifluoromethyl)pyrimidin-2-yl)isoquinolin-1(2H)-one], the EC50 worked out at 158 nM.

`O=c1[nH]ncc(N[C@H](CCCn2cnc3cc(-c4ncc(C(F)(F)F)cn4)c(F)cc3c2=O)C2CC2)c1C(F)(F)F` [Example 471, 3-[(4R)-4-cyclopropyl-4-[[6-oxo-5-(trifluoromethyl)-1H-pyridazin-4-yl]amino]butyl]-6-fluoro-7-[5-(trifluoromethyl)pyrimidin-2-yl]quinazolin-4-one]: the half-maximal effective concentration (EC50) is 23.2 nM.

In the case of `[2H]C([2H])([2H])OC[C@@H](CCCn1ccc2cc(-c3ccc(C(F)(F)F)cn3)c(F)cc2c1=O)Nc1cn[nH]c(=O)c1C(F)(F)F` [Example 434], the EC50 was found to be 13 nM.

In the case of `Nc1nc(-c2cc3ncn(C[C@@H]4CCC[C@H](Nc5cn[nH]c(=O)c5C(F)(F)F)C4)c(=O)c3cc2F)ncc1C(F)F` [Example 236], the concentration for a half-maximal effect (EC50) was 32.2 nM.

Regarding `Nc1nc(-c2cc3ncn(C[C@@H]4CCC[C@H](Nc5cn[nH]c(=O)c5C(F)(F)F)C4)c(=O)c3cc2F)ncc1OC(F)F` [Example 265, 7-(4-amino-5-(difluoromethoxy)pyrimidin-2-yl)-6-fluoro-3-(((1R,3S)-3-((6-oxo-5-(trifluoromethyl)-1,6-dihydropyridazin-4-yl)amino)cyclohexyl)methyl)quinazolin-4(3H)-one], the EC50 was determined as 52.3 nM.

Regarding `COc1ncc(-c2cc3ccn(C[C@@H]4CCC[C@H](Nc5cn[nH]c(=O)c5C(F)(F)F)C4)c(=O)c3cc2F)nc1N` [Example 263, 6-(6-amino-5-methoxypyrazin-2-yl)-7-fluoro-2-(((1R,3S)-3-((6-oxo-5-(trifluoromethyl)-1,6-dihydropyridazin-4-yl)amino)cyclohexyl)methyl)isoquinolin-1(2H)-one], the EC50 was 122 nM.

On to `Cc1ccc(-c2cc3ccn(CCC[C@H](C)Nc4cn[nH]c(=O)c4C(F)(F)F)c(=O)c3cc2F)nc1C(F)(F)F` [Example 296, (S)-7-fluoro-6-(5-methyl-6-(trifluoromethyl)pyridin-2-yl)-2-(4-((6-oxo-5-(trifluoromethyl)-1,6-dihydropyridazin-4-yl)amino)pentyl)isoquinolin-1(2H)-one], for which the half-maximal effective concentration (EC50) worked out at 1460 nM.

`C[C@@H](CCCn1cnc2cc(-c3cnc(Cl)c(N)n3)c(F)cc2c1=O)Nc1cn[nH]c(=O)c1C(F)(F)F` [Example 352, (S)-7-(6-amino-5-chloropyrazin-2-yl)-6-fluoro-3-(4-((6-oxo-5-(trifluoromethyl)-1,6-dihydropyridazin-4-yl)amino)pentyl)quinazolin-4(3H)-one]: the half-maximal effective concentration (EC50) stood at 64.4 nM.

Regarding `C[C@@H](CCCn1cnc2cc(-c3ncc(C4CC4)cn3)c(F)cc2c1=O)Nc1cn[nH]c(=O)c1C(F)(F)F` [Example 83, (S)-7-(5-cyclopropylpyrimidin-2-yl)-6-fluoro-3-(4-((6-oxo-5-(trifluoromethyl)-1,6-dihydropyridazin-4-yl)amino)pentyl)quinazolin-4(3H)-one], the concentration giving a half-maximal response (EC50) came out at 58.2 nM.

As for `CC[C@@H](CCCn1cnc2cc(-c3ncc(OC(F)F)c(N)n3)c(F)cc2c1=O)Nc1cn[nH]c(=O)c1C(F)(F)F` [Example 364, (S)-7-(4-amino-5-(difluoromethoxy)pyrimidin-2-yl)-6-fluoro-3-(4-((6-oxo-5-(trifluoromethyl)-1,6-dihydropyridazin-4-yl)amino)hexyl)quinazolin-4(3H)-one], the EC50 turned out to be 96.4 nM.

Consider `NC1(c2cnc(-c3cc4ccn(C[C@@H]5CCC[C@H](Nc6cn[nH]c(=O)c6C(F)(F)F)C5)c(=O)c4cc3F)cn2)COC1` [Example 275, 6-(5-(3-aminooxetan-3-yl)pyrazin-2-yl)-7-fluoro-2-(((1R,3S)-3-((6-oxo-5-(trifluoromethyl)-1,6-dihydropyridazin-4-yl)amino)cyclohexyl)methyl)isoquinolin-1(2H)-one], for which the EC50 was 200 nM.

With `N#Cc1cn(C[C@@H]2CCC[C@H](Nc3cn[nH]c(=O)c3C(F)(F)F)C2)c(=O)c2cc(F)c(-c3ncc(C(F)(F)F)cn3)cc12` [Example 483, 7-fluoro-1-oxo-2-(((1R,3S)-3-((6-oxo-5-(trifluoromethyl)-1,6-dihydropyridazin-4-yl)amino)cyclohexyl)methyl)-6-(5-(trifluoromethyl)pyrimidin-2-yl)-1,2-dihydroisoquinoline-4-carbonitrile], the EC50 was found to be 4.71 nM.

As for `O=c1[nH]ncc(N[C@H](CCCn2cnc3cc(-c4cnc(C(F)F)cn4)c(F)cc3c2=O)COC(F)F)c1C(F)(F)F` [Example 372, (R)-3-(5-(difluoromethoxy)-4-((6-oxo-5-(trifluoromethyl)-1,6-dihydropyridazin-4-yl)amino)pentyl)-7-(5-(difluoromethyl)pyrazin-2-yl)-6-fluoroquinazolin-4(3H)-one], the EC50 came out at 7.13 nM.

As to `Cc1cnc(N)nc1-c1cc2ncn(CCC[C@H](C)Nc3cn[nH]c(=O)c3C(F)(F)F)c(=O)c2cc1F` [Example 79, (S)-7-(2-amino-5-methylpyrimidin-4-yl)-6-fluoro-3-(4-((6-oxo-5-(trifluoromethyl)-1,6-dihydropyridazin-4-yl)amino)pentyl)quinazolin-4(3H)-one], the EC50 turned out to be 1500 nM.

For `C[C@@H](CCCn1ccc2cc(-c3ccc(C(F)(F)CO)cn3)c(F)cc2c1=O)Nc1cn[nH]c(=O)c1C(F)(F)F` [Example 75, 6-[5-(1,1-difluoro-2-hydroxy-ethyl)-2-pyridyl]-7-fluoro-2-[(4S)-4-[[6-oxo-5-(trifluoromethyl)-1H-pyridazin-4-yl]amino]pentyl]isoquinolin-1-one], the 50% effective concentration (EC50) is 54.2 nM.
